For one data set, the system named is MCF-7 cell migration. Description: Cell migration. In kind it is cell-based, human. As to conditions: for migration area at 24 hours: MCF-7, treated with IC50, 24 hours, negative control 44.02%.
The subject of another data set is MCF-7 cancer cell line. The data set is described as follows: Cell viability assay. In kind it is cell-based. The conditions noted are these: Homo sapiens, MCF7, 24 h, read-out: IC50 (cytotoxicity, SRB assay).
A further data set has as its system MCF-7 colony formation. The data set is described as follows: Cell proliferation. In kind it is cell-based, human. The conditions noted are these: MCF-7, treated with IC50, 5 days; negative control 100%.
Data set [1] has as its system normal human diploid fibroblasts. The conditions noted are these: cited from earlier work.

Data on two compounds can be found in paper PMC12174528 (Asian Pacific Journal of Cancer Prevention : APJCP, 2025).

Molecules are shown by their SMILES. Converted amounts (≈) assume the structure as drawn.

Regarding `C[C@H]1c2cccc(O)c2C(=O)C2=C(O)[C@]3(O)C(=O)C(C(N)=O)=C(O)[C@@H](N(C)C)[C@@H]3[C@@H](O)[C@@H]21` [DOX, doxycycline], in the data set with MCF-7 cell migration, the “migration area at 24 hours” value came to 6.8%. In addition, the “migration area at 48 hours” value with MCF-7 cell migration (MCF-7, treated with IC50, 48 hours, negative control 53.99%) is -16.50%. Further, the IC50 in the data set with MCF-7 cancer cell line was 343 µg/mL (≈ 773 µM). Moreover, the “colony formation relative to the negative control” value in the data set with MCF-7 colony formation came to 35.56%.
`C[C@@H]1O[C@@H](O[C@@H]2[C@@H](O)[C@H](OCCc3ccc(O)c(O)c3)O[C@H](CO)[C@H]2OC(=O)/C=C/c2ccc(O)c(O)c2)[C@H](O)[C@H](O)[C@H]1O` [ACT, Acteoside]: the “migration area at 24 hours” value in the data set on MCF-7 cell migration amounted to 14.38%. Further, the IC50 with MCF-7 cancer cell line amounted to 135 µg/mL (≈ 216 µM). Besides, the “toxic effects on normal human diploid fibroblasts” value in data set [1] is “no toxic effects”. The “colony formation relative to the negative control” value in the data set with MCF-7 colony formation is recorded as 39.7%.
